Calls of active or inactive are those of the source. The calls are words filed in the database; no cut-off is given here.
Assays:
[1] = molecular target: T1, Programmed cell death protein 1/Programmed cell death 1 ligand 1 (Homo sapiens) (UniProt Q15116+Q9NZQ7); assay: Inhibition of human PD-1/PD-L1 interaction assessed as residual activity at 500 nM for 1 hr by HTRF assay relative to control; type: protein-complex assay
[2] = molecular target: T2, Programmed cell death protein 1/Programmed cell death 1 ligand 1 (Homo sapiens, UniProt Q9NZQ7); assay: Inhibition of human PD-1/PD-L1 interaction incubated for 1 hr by HTRF assay; type: protein-complex assay
T2 sequence (Q15116 whole entry): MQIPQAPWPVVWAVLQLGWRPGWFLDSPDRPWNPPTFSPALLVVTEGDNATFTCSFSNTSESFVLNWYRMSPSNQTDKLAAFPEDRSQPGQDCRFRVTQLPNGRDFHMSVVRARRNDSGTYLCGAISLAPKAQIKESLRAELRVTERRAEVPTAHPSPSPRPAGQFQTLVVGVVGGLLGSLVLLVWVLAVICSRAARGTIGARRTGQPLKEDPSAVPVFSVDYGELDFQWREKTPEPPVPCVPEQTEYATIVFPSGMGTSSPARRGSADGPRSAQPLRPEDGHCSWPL
T2 sequence (Q9NZQ7 whole entry): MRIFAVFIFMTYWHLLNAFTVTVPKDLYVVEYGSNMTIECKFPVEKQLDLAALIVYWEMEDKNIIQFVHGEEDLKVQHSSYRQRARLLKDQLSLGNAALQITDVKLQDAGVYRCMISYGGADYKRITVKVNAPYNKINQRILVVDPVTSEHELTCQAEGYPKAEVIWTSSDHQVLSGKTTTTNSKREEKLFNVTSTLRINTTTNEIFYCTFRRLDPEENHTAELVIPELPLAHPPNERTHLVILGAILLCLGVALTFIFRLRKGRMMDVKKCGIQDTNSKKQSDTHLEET

[3] = molecular target: T1, Programmed cell death protein 1/Programmed cell death 1 ligand 1 (Homo sapiens); assay: (§1) Inhibition of PD-1/PD-L1 interaction in human Jurkat T cells co-cultured with CHO/TCRAct/PDL1 cells assessed as restoration of T cell activation measured for 6 hrs by luminescence based immune checkpoint blockade assay; conditions: dose 0.1-100 µM
PBMC [4] = assay: Induction of T cell activation in human PBMC cells co-cultured with CHO/TCRAct/PD-L1 cells assessed as increase in the percentage of CD69+/CD8+ cells at 10 uM incubated for 48 hrs by flow cytometry analysis; type: functional, cell-based
PBMC [5] = assay: Induction of T cell activation in human PBMC cells co-cultured with CHO/TCRAct/PD-L1 cells assessed as increase in PD-1 positive cells at 10 uM incubated for 48 hrs by flow cytometry analysis; type: functional, cell-based
PBMC [6] = assay: Induction of T cell activation in human PBMC cells co-cultured with CHO/TCRAct/PD-L1 cells assessed as increase in HLA-DR positive cells at 10 uM incubated for 48 hrs by flow cytometry analysis; type: functional, cell-based
[7] = molecular target: T2, Programmed cell death protein 1/Programmed cell death 1 ligand 1; assay: as §1
PBMC [8] = assay: Induction of T cell activation in human PBMC cells co-cultured with CHO/TCRAct/PD-L1 cells assessed as increase in the percentage of CD25+/CD4+ cells at 10 uM incubated for 48 hrs by flow cytometry analysis; type: functional, cell-based

Cc1c(NC(=O)c2ccc(CNC(CO)CO)cn2)cccc1-c1ccc2c(c1)OCCN2C(=O)c1ccc(CNC(CO)CO)cc1
Activity [1]: 70%

Cc1c(NC(=O)c2ccc(CNC(CO)(CO)CO)cn2)cccc1-c1ccc2c(c1)OCCN2C(=O)c1ccc(CNC(CO)(CO)CO)cc1
Activity [1]: 92%

Cc1c(NC(=O)c2ccc(CNC(CO)CO)cn2)cccc1-c1ccc2c(c1)OCCN2C
IC50 [2]: 0.109 µM
inhibition [3]: inactive

Cc1c(NC(=O)c2ccc(CNC(CO)(CO)CO)cn2)cccc1-c1ccc2c(c1)OCCN2C
IC50 [2]: 0.077 µM
Activity (PBMC [4]): Active
Activity (PBMC [5]): Active
Activity (PBMC [6]): Active
inhibition [3]: Dose-Dependent Effect
EC50 [7]: 25.8 µM
Activity (PBMC [8]): Active

O=C(O)[C@@H]1CCCCN1Cc1ccc(OCc2cccc(-c3ccccc3)c2Br)c(Br)c1
EC50 [7]: 6.6 µM

Cc1c(COc2ccc(CNC(CO)CO)cc2)cccc1-c1ccc2c(c1)OCCN2C(=O)c1ccc(CNC(CO)CO)cc1
Activity [1]: 84%

Cc1c(COc2ccc(CNC(CO)(CO)CO)cc2)cccc1-c1ccc2c(c1)OCCN2C(=O)c1ccc(CNC(CO)(CO)CO)cc1
Activity [1]: 83%

Reference: ChEMBL document CHEMBL5584261, “N-methylmorpholine incorporation into the structure of biphenyl leads to the bioactive inhibitor of PD-1/PD-L1 interaction” (Bioorg Med Chem Lett, 2024)
